Reference: patent publication US20220288014A1, “ORAL FORMULATIONS OF CANNABIS EXTRACTS AND METHODS OF MAKING SAME” (Neptune Wellness Solutions Inc., priority 2019, published 2022)

Assays:
[1] = Example 2: rat pharmacokinetics of CBD and THC from cannabis extract (1:1 THC:CBD), IV bolus and oral gavage in MCT, TG-O3 or krill oil (PL-O3); type: in vivo; conditions: intravenous administration of cannabis extract in lipid-free solution, at 5 minutes (data not shown)
Excerpt: The study design and methods of analyses of the pre-clinical study were the same as disclosed in Example 1.
Values are expressed as mean±SEM.

[2] = Example 1: rat pharmacokinetics of CBD and THC from cannabis extract (1:1 THC:CBD), IV bolus and oral gavage in MCT, TG-O3 or MAG-O3 carrier oil; conditions: intravenous administration of cannabis extract in lipid-free solution, at 5 minutes (data not shown)

C=C(C)[C@@H]1CCC(C)=C[C@H]1c1c(O)cc(CCCCC)cc1O [CBD, cannabidiol]
peak plasma concentration [1]: 1193 ± 290 ng/mL | peak plasma concentration [2]: 1193 ± 290 ng/mL

CCCCCc1cc(O)c2c(c1)OC(C)(C)[C@@H]1CCC(C)=C[C@@H]21 [THC, Δ^9tetrahydrocannabinol]
peak plasma concentration [1]: 864 ± 194 ng/mL | peak plasma concentration [2]: 864 ± 194 ng/mL
